According to US20080260636A1, “STABILIZATION OF RADIONUCLIDE-CONTAINING COMPOSITIONS” (priority 2001, published 2008):
Where a SMILES comes first, the peptide text is derived from it. [ ]: non-standard residue; d: D form. The star is where a group is joined. X1 = NCCCC[C@H](NC(=O)[C@H](CS)NC(=O)[C@H](CCCCN)NC(=O)[C@@H](N)CNC(=O)C*)C(N)=O; NMeF = CN[C@@H](Cc1ccccc1)C(=O)O; hCys = N[C@@H](CCS)C(=O)O

How the values were obtained:
[1] = RCP of 2-vial kit (iodide added to formulated kit, then Tc-99m added); assay type: physicochemical; conditions: 2-vials
Method: (§1) KI affords stability to Tc-99m depreotide even when an oxidant (i.e. nitrate) is present in the eluate. Potassium iodide is well tolerated in humans unlike other stabilizing agents such as methionine or trolox. Methods for determining the RCP value are known in the art such as described in Cancer Res. (1998), May 1, 58(9):1850-1859, and J. Nucl. Med. (1996), June, 37(6): 1016-1022.
(§2) Further examples were conducted to show the stabilizing effect of the iodide ion for other complexes under varying conditions and with varying amounts and sources (KI and NaI) of iodide ion.

[2] = RCP of single vial kit (iodide formulated with targeting agent) reconstituted with Tc 99m; assay type: physicochemical
Method: as §1, §2

- % RCP ([1]; KI 4 mg, 5 h): 94%
- % RCP ([1]; KI 6 mg, 5 h): 94%
- % RCP ([1]; KI 10 mg, 6 h): 95%
Structure (SMILES): CC(C)[C@@H]1NC(=O)[C@H](CCCCN)NC(=O)[C@@H](Cc2c[nH]c3ccccc23)NC(=O)[C@H](Cc2ccc(O)cc2)NC(=O)[C@H](Cc2ccccc2)N(C)C(=O)[C@H](CCSCC(=O)NC[C@H](N)C(=O)N[C@@H](CCCCN)C(=O)N[C@@H](CS)C(=O)N[C@@H](CCCCN)C(N)=O)NC1=O [Depreotide, depreotide] (cyclo([hCys](X1)[NMeF]Y[dW]KV))
- % RCP ([2]; KI 4 mg, 5 h): 89%
- % RCP ([2]; KI 5 mg, 6 h): 93%
- % RCP ([2]; KI 6 mg, 5 h): 95%
- % RCP ([2]; NaI 8 mg, 6 h): 91%
- % RCP ([2]; NaI 10 mg, 5 h): 93%
